From PubChem BioAssay (NCI)
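The concentration for 50% growth inhibition is given as GI50. The concentration for full growth arrest is given as TGI.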

Tests used:
Test in all cases: growth of human tumour cells (NCI), 384-well format
A498 renal = tested on: A498 renal
A549 NSCLC = tested on: A549 NSCLC
CAKI-1 renal = tested on: CAKI-1 renal
CCRF-CEM leukemia = tested on: CCRF-CEM leukemia
COLO 205 colon = tested on: COLO 205 colon
HCC-2998 colon = tested on: HCC-2998 colon
HL-60(TB) leukemia = tested on: HL-60(TB) leukemia
HOP-62 NSCLC = tested on: HOP-62 NSCLC
HS 578T breast = tested on: HS 578T breast
IGROV1 ovarian = tested on: IGROV1 ovarian
LOX IMVI melanoma = tested on: LOX IMVI melanoma
MALME-3M melanoma = tested on: MALME-3M melanoma
MDA-MB-231 breast = tested on: MDA-MB-231 breast
MOLT-4 leukemia = tested on: MOLT-4 leukemia
NCI-H226 lung = tested on: NCI-H226 lung
NCI-H23 lung = tested on: NCI-H23 lung
NCI-H322M lung = tested on: NCI-H322M lung
NCI-H522 lung = tested on: NCI-H522 lung
OVCAR-3 ovarian = tested on: OVCAR-3 ovarian
OVCAR-4 ovarian = tested on: OVCAR-4 ovarian
OVCAR-5 ovarian = tested on: OVCAR-5 ovarian
RPMI-8226 leukemia = tested on: RPMI-8226 leukemia
SF-295 CNS = tested on: SF-295 CNS
SF-539 CNS = tested on: SF-539 CNS
SK-MEL-28 melanoma = tested on: SK-MEL-28 melanoma
SK-MEL-5 melanoma = tested on: SK-MEL-5 melanoma
SK-OV-3 ovarian = tested on: SK-OV-3 ovarian
SNB-19 CNS = tested on: SNB-19 CNS
SNB-75 CNS = tested on: SNB-75 CNS
TK-10 renal = tested on: TK-10 renal
U251 glioblastoma = tested on: U251 glioblastoma
UACC-62 melanoma = tested on: UACC-62 melanoma
UO-31 renal = tested on: UO-31 renal

With CN(Cc1cnc2nc(N)nc(N)c2n1)c1ccc(C(=O)N[C@@H](CCC(=O)O)C(=O)O)cc1 the GI50 (A498 renal) was < 0.0188 µM, the TGI (A498 renal) was 0.232 µM and the TGI (A549 NSCLC) was 0.0178 µM. The GI50 (CAKI-1 renal) was 0.0263 µM, the TGI (CAKI-1 renal) was 0.0738 µM and the TGI (CCRF-CEM leukemia) was < 0.0113 µM. The GI50 (COLO 205 colon) was 0.0513 µM, the TGI (COLO 205 colon) was 95.9 µM and the GI50 (HCC-2998 colon) was 0.0391 µM. For the same compound, the TGI (HL-60(TB) leukemia) was < 0.0142 µM, the GI50 (HOP-62 NSCLC) was 0.0375 µM and the TGI (HOP-62 NSCLC) was 0.123 µM. The GI50 (HS 578T breast) was < 0.0151 µM, the TGI (HS 578T breast) was 0.0316 µM and the GI50 (IGROV1 ovarian) was 0.0286 µM. The TGI (LOX IMVI melanoma) was 0.014 µM, the GI50 (MALME-3M melanoma) was < 0.0153 µM and the GI50 (MDA-MB-231 breast) was 0.263 µM. It also gave a TGI (MDA-MB-231 breast) of 0.68 µM, a TGI (MOLT-4 leukemia) of 0.0181 µM and a GI50 (NCI-H226 lung) of 0.0289 µM. The GI50 (NCI-H23 lung) was 0.0304 µM, the TGI (NCI-H23 lung) was 0.308 µM and the GI50 (NCI-H322M lung) was < 0.0126 µM. The TGI (NCI-H322M lung) was 0.0226 µM, the GI50 (NCI-H522 lung) was 0.032 µM and the TGI (NCI-H522 lung) was 0.543 µM. For the same compound, the GI50 (OVCAR-3 ovarian) was < 0.0148 µM, the TGI (OVCAR-3 ovarian) was 0.0276 µM and the TGI (OVCAR-4 ovarian) was 0.0665 µM. The TGI (OVCAR-5 ovarian) was < 0.0154 µM, the GI50 (RPMI-8226 leukemia) was 0.0173 µM and the TGI (RPMI-8226 leukemia) was 0.0421 µM. For the same compound, the GI50 (SF-295 CNS) was < 0.0135 µM, the TGI (SF-295 CNS) was < 0.0209 µM and the TGI (SF-539 CNS) was 13.6 µM. The GI50 (SK-MEL-28 melanoma) was 0.0277 µM, the TGI (SK-MEL-28 melanoma) was 0.0607 µM and the GI50 (SK-MEL-5 melanoma) was 0.13 µM. The TGI (SK-MEL-5 melanoma) was 87.3 µM, the GI50 (SK-OV-3 ovarian) was 1.45 µM and the GI50 (SNB-19 CNS) was < 0.0197 µM. For the same compound, the GI50 (SNB-75 CNS) was < 0.0129 µM, the TGI (SNB-75 CNS) was < 0.0283 µM and the GI50 (TK-10 renal) was 0.0236 µM. The TGI (TK-10 renal) was 0.0523 µM, the GI50 (U251 glioblastoma) was 0.0317 µM and the GI50 (UACC-62 melanoma) was 0.0189 µM. For the same compound, the GI50 (UO-31 renal) was 0.0295 µM and the TGI (UO-31 renal) was 9.76 µM.
